Peptide text beside a SMILES is read from it.
Experiments:
rats [1] = test: rat-tail flick method, intracerebroventricular injection; assay type: in vivo; design: Mean Latency ± SEM Baseline / Mean Latency ± SEM Drug: unit not given here; settings: lateral ventricle; for Mean % Change ± SEM: change in latency (drug minus baseline); for Mean Latency ± SEM Baseline / Mean Latency ± SEM Drug: rat-tail flick; for Mean Latency ± SEM Baseline: baseline before drug
Method: In this test method, which is a standard test for analgesia, a light beam is focused on the tip of the rat's tail, and the pain threshold of the animal is measured by the latency of the rat to remove his tail from the noxious heat source. When tested by the rat-tail flick method by intracerebroventricular injection, according to the procedure of Belluzzi et al., Nature, 260, 625 (1976), the polypeptides of this invention produced the effects set forth in Table I.
*All drugs were dissolved in […]. of Ringer's solution and injected int
the lateral ventricle through permanently-indwelling cannulae.

rats [2] = settings: injection in the brain ventricle; cited from earlier work

Row | SMILES | Mean % Change ± SEM (rats [1]; dose 25 μg, 1 rat) [%] | Mean % Change ± SEM (rats [1]; dose 50 μg) [%] | Mean % Change ± SEM (rats [1]; dose 100 μg) [%] | Mean Latency ± SEM Baseline (rats [1]; dose group 25 μg, 1 rat) | Mean Latency ± SEM Baseline (rats [1]; dose group 50 μg) | Mean Latency ± SEM Baseline (rats [1]; dose group 100 μg) | Mean Latency ± SEM Drug (rats [1]; dose 25 μg, 1 rat) | Mean Latency ± SEM Drug (rats [1]; dose 50 μg) | Mean Latency ± SEM Drug (rats [1]; dose 100 μg) | analgesia (rats [2]) | Mean Latency ± SEM Baseline (rats [1]; dose group 10 μg)
1 | CSCC[C@H](NC(=O)[C@H](Cc1ccccc1)NC(=O)CNC(=O)CNC(=O)[C@H](Cc1ccc(O)cc1)NC(=O)[C@@H](N)CCCNC(=N)N)C(=O)N[C@H](C(=O)N[C@@H](CO)C(=O)O)[C@@H](C)O [L-Arginyl-L-Tyrosyl-Glycyl-Glycyl-L-Phenylalanyl-L-Methionyl-L-Threonyl-L-Serine] (H-RYGGFMTS-OH) | 69.60 | 74.13 ± 15.56 | 55.13 ± 51.71 | 3.54 | 3.55 ± 0.13 | 3.43 ± 0.05 | 6.01 | 6.18 ± 0.55 | 5.29 ± 1.10 | – | –
2 | CSCC[C@H](NC(=O)[C@H](Cc1ccccc1)NC(=O)CNC(=O)CNC(=O)[C@@H](N)Cc1ccc(O)cc1)C(=O)O [Methionine-Enkephalin, H-Tyr-Gly-Gly-Phe-Met-OH, reference compound] | – | – | – | – | – | 3.83 ± 0.14 | – | – | – | induce a profound analgesia that is fully reversible by naloxone | –
3 | CN1CC[C@]23c4c5ccc(O)c4O[C@H]2[C@@H](O)C=C[C@H]3[C@H]1C5 [Morphine] | – | – | – | – | – | – | – | – | – | – | 3.96 ± 0.42

Reference: patent US4098781A, “Polypeptides with morphine-like activity” (American Home Products Corporation, priority 1977, dated 1978)
